This is an account of results in patent US11591365B2, “BCL9 peptides and variants thereof” (WntRx Pharmaceuticals Inc., priority 2017, dated 2023).

SMILES strings stand for the structures. *1 amine or outer side, *2 acyl side, *3 side chain or, on linkers, in order; H or OH if unused. Where a SMILES comes first, the peptide text is derived from it. Bridges are numbered along the chain shown (N, C = ends). [ ]: non-standard residue; d: D form. Azetidine3carboxylic = O=C(C1CN([*:1])C1)[*:2]; 2Nal = N[C@@H](Cc1ccc2ccccc2c1)C(=O)O; NMeR = CN[C@@H](CCCNC(=N)N)C(=O)O; NMeE = CN[C@@H](CCC(=O)O)C(=O)O; Cha = N[C@@H](CC1CCCCC1)C(=O)O; Cba = N[C@@H](CC1CCC1)C(=O)O; S5 = C=CCCC[C@](C)(N)C(=O)O; βAla = NCCC(=O)O

The term IC50 denotes the midpoint of a concentration-inhibition curve. Higher therefore signals lower potency.

In the assay the test system is Colo320DM. As to the kind of experiment: Colo320DM cell viability. The class given is cell-based, human. The source says: In some embodiments, a polypeptide described herein inhibits binding of BLC9 to β-catenin when assessed in a cell-viability assay. In some embodiments, the cell-viability assay is a CellTiterGlo luminescent assay, wherein the viability of cells is quantitatively measured. Various cell lines, transformed cell lines or primary cells derived from a healthy subject or subject suffering from a disease can be used in this assay.
`CC[C@H](C)[C@@H]1NC(=O)[C@@](C)(NC(=O)[C@H](CCCNC(=N)N)NC(=O)[C@H](CC(C)C)NC(=O)[C@@H](NC(=O)[C@H](CCC(N)=O)NC(=O)[C@H](CC(C)C)NC(=O)[C@H](CO)NC(=O)[C@H](CCCNC(=N)N)NC(=O)[C@H](CCC(=O)O)NC(=O)[C@H](CCCNC(=N)N)NC(C)=O)[C@@H](C)O)CCCC=CCCC[C@@](C)(C(=O)N[C@@H](CC(C)C)C(=O)N[C@@H](Cc2ccc3ccccc3c2)C(N)=O)NC(=O)[C@H](CCCNC(=N)N)NC(=O)[C@H](CCC(N)=O)NC1=O` [SEQ ID NO: 5, RERSLQTLRXIQRXL(2-Nal)] (Ac-RERSLQTLR[S5]IQR[S5]L[2Nal]-NH2; staple 10-14): it took 6.8 µM to reach half-maximal inhibition (IC50).

`CC[C@H](C)[C@@H]1NC(=O)[C@@](C)(NC(=O)[C@H](CCCNC(=N)N)NC(=O)[C@H](CC(C)C)NC(=O)[C@@H](NC(=O)[C@H](CCC(N)=O)NC(=O)[C@H](CC(C)C)NC(=O)[C@H](CO)NC(=O)[C@H](CCCNC(=N)N)NC(=O)[C@H](CCC(=O)O)N(C)C(=O)[C@H](CCCNC(=N)N)NC(=O)[C@H](Cc2c[nH]cn2)NC(C)=O)[C@@H](C)O)CCCC=CCCC[C@@](C)(C(=O)N[C@@H](CC2CCC2)C(=O)N[C@@H](Cc2ccc3ccccc3c2)C(N)=O)NC(=O)[C@H](CCCNC(=N)N)NC(=O)[C@H](CCC(N)=O)NC1=O` [SEQ ID NO: 151, HR(N-methylE)RSLQTLRXIQRX(CBA)(2-Nal)] (Ac-HR[NMeE]RSLQTLR[S5]IQR[S5][Cba][2Nal]-NH2; staple 11-15) yielded a 50% inhibitory concentration (IC50) of 3.1 µM. Compound `CC[C@H](C)[C@@H]1NC(=O)[C@@](C)(NC(=O)[C@H](CCCNC(=N)N)NC(=O)[C@H](CC(C)C)NC(=O)[C@@H](NC(=O)[C@H](CCC(N)=O)NC(=O)[C@H](CC(C)C)NC(=O)[C@H](CO)NC(=O)[C@H](CCCNC(=N)N)NC(=O)[C@H](CCC(N)=O)NC(=O)[C@H](CCCNC(=N)N)NC(=O)[C@H](Cc2c[nH]cn2)NC(C)=O)[C@@H](C)O)CCCC=CCCC[C@@](C)(C(=O)N2CC(C(=O)N[C@@H](Cc3ccc4ccccc4c3)C(N)=O)C2)NC(=O)[C@H](CCCNC(=N)N)NC(=O)[C@H](CCC(N)=O)NC1=O` [SEQ ID NO: 178, HRQRSLQTLRXIQRX(Aze)(2-Nal)] (Ac-HRQRSLQTLR[S5]IQR[S5][Azetidine3carboxylic][2Nal]-NH2; staple 11-15) returned an IC50 above 5 µM. The compound `CC[C@H](C)[C@@H]1NC(=O)[C@@](C)(NC(=O)[C@H](CCCNC(=N)N)NC(=O)[C@H](CC(C)C)NC(=O)[C@@H](NC(=O)[C@H](CCC(N)=O)NC(=O)[C@H](CC(C)C)NC(=O)[C@H](CO)NC(=O)[C@H](CCCNC(=N)N)N(C)C(=O)[C@H](CCC(N)=O)NC(=O)[C@H](CCCNC(=N)N)NC(=O)[C@H](Cc2c[nH]cn2)NC(C)=O)[C@@H](C)O)CCCC=CCCC[C@@](C)(C(=O)N[C@@H](CC2CCCCC2)C(=O)N[C@@H](Cc2ccc3ccccc3c2)C(N)=O)NC(=O)[C@H](CCCNC(=N)N)NC(=O)[C@H](CCC(N)=O)NC1=O` [SEQ ID NO: 184, HRQ(N-MeArg)SLQTLRXIQRX(Cha)(2-Nal)] (Ac-HRQ[NMeR]SLQTLR[S5]IQR[S5][Cha][2Nal]-NH2; staple 11-15) displayed a concentration for half-maximal inhibition (IC50) of 2.43 µM. This lies in the single-digit micromolar range. Next, `CC[C@H](C)[C@@H]1NC(=O)[C@@](C)(NC(=O)[C@H](CCCNC(=N)N)NC(=O)[C@H](CC(C)C)NC(=O)[C@]2(C)CCCC=CCCC[C@](C)(NC(=O)[C@H](CCC(=O)O)NC(=O)[C@H](CCCNC(=N)N)NC(C)=O)C(=O)N[C@@H](CO)C(=O)N[C@@H](CC(C)C)C(=O)N[C@@H](CCC(N)=O)C(=O)N2)CCCC=CCCC[C@@](C)(C(=O)N[C@@H](CC(C)C)C(=O)N[C@@H](Cc2ccc3ccccc3c2)C(=O)NCCC(=O)NCCC(N)=O)NC(=O)[C@H](CCCNC(=N)N)NC(=O)[C@H](CCC(N)=O)NC1=O` [SEQ ID NO: 40, REXSLQXLRZIQRZL(2-Nal)(β-Ala)(β-Ala)] (Ac-RE[S5]SLQ[S5]LR[S5]IQR[S5]L[2Nal][βAla][βAla]-NH2; staple 3-7, 10-14): 0.83 µM; `CC[C@H](C)[C@@H]1NC(=O)[C@@](C)(NC(=O)[C@H](CCCNC(=N)N)NC(=O)[C@H](CC(C)C)NC(=O)[C@@H](NC(=O)[C@H](CCC(N)=O)NC(=O)[C@H](CC(C)C)NC(=O)[C@H](CO)NC(=O)[C@H](CCCNC(=N)N)NC(=O)[C@H](CCC(=O)O)NC(=O)[C@H](CCCNC(=N)N)NC(=O)[C@H](Cc2c[nH]cn2)NC(C)=O)[C@@H](C)O)CCCC=CCCC[C@@](C)(C(=O)N[C@@H](CC2CCC2)C(=O)N[C@@H](Cc2ccc3ccccc3c2)C(N)=O)NC(=O)[C@H](CCCNC(=N)N)NC(=O)[C@H](CCC(N)=O)NC1=O` [SEQ ID NO: 14, HRERSLQTLRXIQRX(CBA)(2-Nal)] (Ac-HRERSLQTLR[S5]IQR[S5][Cba][2Nal]-NH2; staple 11-15): 1.49 µM. On to `CC[C@H](C)[C@@H]1NC(=O)[C@@](C)(NC(=O)[C@H](CCCNC(=N)N)NC(=O)[C@H](CC(C)C)NC(=O)[C@@H](NC(=O)[C@H](CCC(N)=O)NC(=O)[C@H](CC(C)C)NC(=O)[C@H](CO)NC(=O)[C@H](CCCNC(=N)N)NC(=O)[C@H](CCC(=O)O)NC(=O)[C@H](CCCNC(=N)N)NC(=O)[C@H](Cc2c[nH]cn2)NC(=O)[C@H](CCC(=O)O)NC(C)=O)[C@@H](C)O)CCCC=CCCC[C@@](C)(C(=O)N[C@@H](CC2CCC2)C(=O)N[C@@H](Cc2ccc3ccccc3c2)C(N)=O)NC(=O)[C@H](CCCNC(=N)N)NC(=O)[C@H](CCC(N)=O)NC1=O` [SEQ ID NO: 9, EHRERSLQTLRXIQRX(CBA)(2-Nal)] (Ac-EHRERSLQTLR[S5]IQR[S5][Cba][2Nal]-NH2; staple 12-16), for which the half-inhibitory concentration (IC50) is 1.9 µM. As to `CCCCCCCCCCCCCCCC(=O)NCCOCCOCCOCCOCCC(=O)NCCCC[C@H](NC(=O)[C@H](Cc1ccc2ccccc2c1)NC(=O)[C@H](CC1CCC1)NC(=O)[C@]1(C)CCCC=CCCC[C@](C)(NC(=O)[C@H](CCCNC(=N)N)NC(=O)[C@H](CC(C)C)NC(=O)[C@@H](NC(=O)[C@H](CCC(N)=O)NC(=O)[C@H](CC(C)C)NC(=O)[C@H](CO)NC(=O)[C@H](CCCNC(=N)N)NC(=O)[C@H](CCC(N)=O)NC(=O)[C@H](CCCNC(=N)N)NC(=O)[C@H](Cc2c[nH]cn2)NC(C)=O)[C@@H](C)O)C(=O)N[C@@H]([C@@H](C)CC)C(=O)N[C@@H](CCC(N)=O)C(=O)N[C@@H](CCCNC(=N)N)C(=O)N1)C(N)=O` [SEQ ID NO: 161, HRQRSLQTLRXIQRX(CBA)(2-Nal)], the midpoint of inhibition, the IC50, lay at 3.35 µM. Against the preceding compound, the IC50 is about 1.8-fold higher. With `CC[C@H](C)[C@@H]1NC(=O)[C@@](C)(NC(=O)[C@H](CCCNC(=N)N)NC(=O)[C@H](CC(C)C)NC(=O)[C@@H](NC(=O)[C@H](CCC(N)=O)N(C)C(=O)[C@H](CC(C)C)NC(C)=O)[C@@H](C)O)CCCC=CCCC[C@@](C)(C(=O)N[C@@H](CC2CCC2)C(=O)N[C@@H](Cc2ccc3ccccc3c2)C(=O)NCCC(=O)NCCC(N)=O)NC(=O)[C@H](CCCNC(=N)N)NC(=O)[C@H](CCC(N)=O)NC1=O` (single isomer, unassigned) [SEQ ID NO: 111, L(N-methylQ)TLRXIQRX(CBA)(2-Nal)(β-Ala)(β-Ala)], the IC50 is 3.07 µM.
